Values joined by “and” are separate entries in the source; they are usually repeats but may differ in a detail not shown here. Identical values can stand only once. Like-named read-outs stand apart in the source and are kept apart here.
Legend:
wt Tt H-NOX [1] = settings: cited from earlier work
wt Cb H-NOX [2] = settings: cited from earlier work
wt Tt H-NOX [3] = assay type: binding
wt Cb H-NOX [4] = assay type: binding
sGC = settings: cited from earlier work
[5] = test system: 6c NO-heme-His complex in wt Cb H-NOX; assay type: binding, Clostridium botulinum

[C-]#[O+] [CO, Carbon monoxide]
koff (CO) (wt Tt H-NOX [1]): 3.56^g s^−1 | kon (CO) (wt Tt H-NOX [1]): 4.1e+06 g/M/s and 2.18e+06 g/M/s | kon (CO) (wt Cb H-NOX [2]): 1.5 × 10^6d M^−1 s^−1 | koff (CO) (wt Tt H-NOX [3]): 0.5 s⁻¹ | kon (CO) (wt Tt H-NOX [3]): 3.3e+06 M⁻¹ s⁻¹ | Kd (wt Tt H-NOX [3]; read-out: KD (CO)): 160 nM | koff (CO) (wt Cb H-NOX [4]): 1.0 s⁻¹ | kon (CO) (wt Cb H-NOX [4]): 1.5e+06 M⁻¹ s⁻¹ | Kd (wt Cb H-NOX [4]; read-out: KD (CO)): 670 nM

nitric oxide [NO]
koff for 5c NO-heme (sGC): 0.0006 s⁻¹ | koff(NO) of 6c NO-sGC complex (sGC): 27 s⁻¹ | Kd (sGC; read-out: KD(NO)(6c)): 0.054 µM | koff (NO) (wt Tt H-NOX [1]): 0.00056 s⁻¹ | koff (NO) (wt Cb H-NOX [2]): 3 × 10^−6c s^−1 | kon (NO) (wt Cb H-NOX [2]): ~ 10^8c M^−1 s^−1 | k2 (quaternary complex to 5c NO-heme) [5]: ~ 790 s^−1 | Kd ([5]; read-out: KD (reaction I, NO binding to 6c NO-heme-His)): ~570 µM | Kd ([5]; read-out: KD of reaction I): 1100 µM | koff (NO) (wt Tt H-NOX [3]): 0.0034 s⁻¹ | kon (NO) (wt Tt H-NOX [3]): 1.5e+08 M⁻¹ s⁻¹ | Kd (wt Tt H-NOX [3]; read-out: KD (NO)): 0.023 nM | NO dissociation rate, fast phase (wt Cb H-NOX [4]): 0.011 s⁻¹ | koff (NO) (wt Cb H-NOX [4]): 0.012 s⁻¹ | koff of 5c NO-heme complex (wt Cb H-NOX [4]): 1.1 × 10^−3a s^−1 | kon (NO) (wt Cb H-NOX [4]): 1.5e+08 M⁻¹ s⁻¹ | Kd (wt Cb H-NOX [4]; read-out: KD (NO)): 0.08 nM

O=O [O2, oxygen]
koff (O2) (wt Tt H-NOX [1]): 1.2^f s^−1 and 1.2^e s^−1 | kon (O2) (wt Tt H-NOX [1]): 2.5 × 10^7f M^−1 s^−1 and 1.36 × 10^7e M^−1 s^−1 | Kd (wt Tt H-NOX [1]; read-out: KD (O2)): 0.048 µM and 0.0897 µM | koff (O2) (wt Tt H-NOX [3]): 1.9 s⁻¹ | kon (O2) (wt Tt H-NOX [3]): 4.3e+07 M⁻¹ s⁻¹ | Kd (wt Tt H-NOX [3]; read-out: KD (O2)): 44 nM | Kd (wt Cb H-NOX [4]; read-out: KD (O2)): 53000 nM
